Test results: PubChem BioAssay AID2060906 (Molecular Pharmacology Branch, DTP, NCI, 2025)

Tested on: 485176-168-R4-J1-PDC complex spheroid growth
Assay: Anticancer human tumor 485176-168-R4-J1-PDC patient-derived pancreatic adenocarcinoma cell line growth inhibition [RAS]
Conditions: for IC50: curve of first compound; for viability, T/C: stronger effect = lower value; active means viability on the fitted dose curve at most 10% of control; inactive means the rest
In short: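 Multi-cell-type spheroids: tumor cells plus HUVEC endothelial cells and mesenchymal stem cells. RAS-pathway inhibitors were combined with targeted agents, each dosed in half-log steps down from clinical Cmax, or from 10 microM when Cmax was unknown.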

[1] = second compound 0.000949 µM, first compound 0.0316 µM
[2] = second compound 0.000949 µM, first compound 0.1 µM
[3] = second compound 0.000949 µM, first compound 0.316 µM
[4] = second compound 0.000949 µM, first compound 1 µM
[5] = second compound 0.003 µM, first compound 0.0316 µM
[6] = second compound 0.003 µM, first compound 0.1 µM
[7] = second compound 0.003 µM, first compound 0.316 µM
[8] = second compound 0.003 µM, first compound 1 µM
[9] = second compound 0.00949 µM, first compound 0.0316 µM
[10] = second compound 0.00949 µM, first compound 0.1 µM
[11] = second compound 0.00949 µM, first compound 0.316 µM
[12] = second compound 0.00949 µM, first compound 1 µM
[13] = second compound 0.03 µM, first compound 0.0316 µM
[14] = second compound 0.03 µM, first compound 0.1 µM
[15] = second compound 0.03 µM, first compound 0.316 µM
[16] = second compound 0.03 µM, first compound 1 µM
[17] = second compound 0.0949 µM, first compound 0.0316 µM
[18] = second compound 0.0949 µM, first compound 0.1 µM
[19] = second compound 0.0949 µM, first compound 0.316 µM
[20] = second compound 0.0949 µM, first compound 1 µM
[21] = second compound 0.3 µM, first compound 0.0316 µM
[22] = second compound 0.3 µM, first compound 0.1 µM
[23] = second compound 0.3 µM, first compound 0.316 µM
[24] = second compound 0.3 µM, first compound 1 µM
[25] = second compound 0.000949 µM, first compound 3.16 µM
[26] = second compound 0.000949 µM, first compound 10 µM
[27] = second compound 0.003 µM, first compound 3.16 µM
[28] = second compound 0.003 µM, first compound 10 µM
[29] = second compound 0.00949 µM, first compound 3.16 µM
[30] = second compound 0.00949 µM, first compound 10 µM
[31] = second compound 0.03 µM, first compound 3.16 µM
[32] = second compound 0.03 µM, first compound 10 µM
[33] = second compound 0.0949 µM, first compound 3.16 µM
[34] = second compound 0.0949 µM, first compound 10 µM
[35] = second compound 0.3 µM, first compound 3.16 µM
[36] = second compound 0.3 µM, first compound 10 µM
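Further: spheroids exposed to compounds for seven days before readout.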
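Wherever viability, T/C is given: luminescence viability expressed relative to DMSO vehicle wells set as 100%.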

CCN1CCN(Cc2ccc(Nc3ncc(F)c(-c4cc(F)c5nc(C)n(C(C)C)c5c4)n3)nc2)CC1 + CCn1c(-c2cccnc2C(C)OC)c2c3cc(ccc31)N1CCOC(CC(NC(=O)C(C(C)C)N(C)C(=O)C3(F)CCN(C(=O)C#CC(C)(C)N(C)C)CC3)C(=O)N3CCCC(N3)C(=O)OCC(C)(C)C2)C1
inactive: viability, T/C (second compound 0.000949 µM, first compound 0.00316 µM) 93.4% | viability, T/C (second compound 0.000949 µM, first compound 0.01 µM) 103% | viability, T/C [1] 100% | viability, T/C [2] 83.7% | viability, T/C [3] 96.5% | viability, T/C [4] 64.5% | viability, T/C (second compound 0.003 µM, first compound 0.00316 µM) 92% | viability, T/C (second compound 0.003 µM, first compound 0.01 µM) 92.4% | viability, T/C [5] 89.6% | viability, T/C [6] 99.3% | viability, T/C [7] 74.2% | viability, T/C [8] 67.8% | viability, T/C (second compound 0.00949 µM, first compound 0.00316 µM) 101% | viability, T/C (second compound 0.00949 µM, first compound 0.01 µM) 101% | viability, T/C [9] 94.3% | viability, T/C [10] 89.1% | viability, T/C [11] 74.5% | viability, T/C [12] 75% | viability, T/C (second compound 0.03 µM, first compound 0.00316 µM) 86.2% | viability, T/C (second compound 0.03 µM, first compound 0.01 µM) 91% | viability, T/C [13] 87.6% | viability, T/C [14] 72.8% | viability, T/C [15] 72% | viability, T/C [16] 67.4% | viability, T/C (second compound 0.0949 µM, first compound 0.00316 µM) 104% | viability, T/C (second compound 0.0949 µM, first compound 0.01 µM) 85.2% | viability, T/C [17] 84.4% | viability, T/C [18] 75.9% | viability, T/C [19] 80% | viability, T/C [20] 74% | viability, T/C (second compound 0.3 µM, first compound 0.00316 µM) 80.7% | viability, T/C (second compound 0.3 µM, first compound 0.01 µM) 84.4% | viability, T/C [21] 73.2% | viability, T/C [22] 75.2% | viability, T/C [23] 75.9% | viability, T/C [24] 57.4%
> 1 µM: IC50 (second compound 0.000949 µM) | IC50 (second compound 0.003 µM) | IC50 (second compound 0.00949 µM) | IC50 (second compound 0.03 µM) | IC50 (second compound 0.0949 µM) | IC50 (second compound 0.3 µM)

C[C@@H](NC(=O)c1ncnc(N)c1Cl)c1ncc(C(=O)Nc2cc(C(F)(F)F)c(Cl)cn2)s1 + CCn1c(-c2cccnc2C(C)OC)c2c3cc(ccc31)N1CCOC(CC(NC(=O)C(C(C)C)N(C)C(=O)C3(F)CCN(C(=O)C#CC(C)(C)N(C)C)CC3)C(=O)N3CCCC(N3)C(=O)OCC(C)(C)C2)C1
inactive: viability, T/C [1] 101% | viability, T/C [2] 91.7% | viability, T/C [3] 100% | viability, T/C [4] 85.9% | viability, T/C [25] 72.2% | viability, T/C [26] 54.5% | viability, T/C [5] 88.6% | viability, T/C [6] 89.4% | viability, T/C [7] 86.2% | viability, T/C [8] 70.6% | viability, T/C [27] 71% | viability, T/C [28] 59.6% | viability, T/C [9] 87.1% | viability, T/C [10] 98.5% | viability, T/C [11] 83.7% | viability, T/C [12] 82.4% | viability, T/C [29] 91% | viability, T/C [30] 53% | viability, T/C [13] 81.3% | viability, T/C [14] 85.6% | viability, T/C [15] 102% | viability, T/C [16] 78.3% | viability, T/C [31] 75.6% | viability, T/C [32] 79.5% | viability, T/C [17] 89.9% | viability, T/C [18] 90.3% | viability, T/C [19] 78.5% | viability, T/C [20] 70.7% | viability, T/C [33] 74% | viability, T/C [34] 58.3% | viability, T/C [21] 75.2% | viability, T/C [22] 76.4% | viability, T/C [23] 65.7% | viability, T/C [24] 72.4% | viability, T/C [35] 59% | viability, T/C [36] 49.7%
> 10 µM: IC50 (second compound 0.000949 µM) | IC50 (second compound 0.003 µM) | IC50 (second compound 0.00949 µM) | IC50 (second compound 0.03 µM) | IC50 (second compound 0.0949 µM)
9.48 µM: IC50 (second compound 0.3 µM)

Cc1nc(N2CCC3(CC2)COC(C)C3N)c(CO)nc1Sc1ccnc(N)c1Cl (stereo unspecified) + CCn1c(-c2cccnc2C(C)OC)c2c3cc(ccc31)N1CCOC(CC(NC(=O)C(C(C)C)N(C)C(=O)C3(F)CCN(C(=O)C#CC(C)(C)N(C)C)CC3)C(=O)N3CCCC(N3)C(=O)OCC(C)(C)C2)C1
> 10 µM: IC50 (second compound 0.000949 µM) | IC50 (second compound 0.003 µM) | IC50 (second compound 0.00949 µM) | IC50 (second compound 0.03 µM) | IC50 (second compound 0.0949 µM) | IC50 (second compound 0.3 µM)
inactive: viability, T/C [1] 96.6% | viability, T/C [2] 87.4% | viability, T/C [3] 84% | viability, T/C [4] 85.1% | viability, T/C [25] 89.1% | viability, T/C [26] 79.4% | viability, T/C [5] 93.1% | viability, T/C [6] 103% | viability, T/C [7] 81% | viability, T/C [8] 68.9% | viability, T/C [27] 82% | viability, T/C [28] 71% | viability, T/C [9] 110% | viability, T/C [10] 92.9% | viability, T/C [11] 94.7% | viability, T/C [12] 77.6% | viability, T/C [29] 87.6% | viability, T/C [30] 64.3% | viability, T/C [13] 93.3% | viability, T/C [14] 91.2% | viability, T/C [15] 92.2% | viability, T/C [16] 69.2% | viability, T/C [31] 74.8% | viability, T/C [32] 73.9% | viability, T/C [17] 97.3% | viability, T/C [18] 85.4% | viability, T/C [19] 72.3% | viability, T/C [20] 87.3% | viability, T/C [33] 70.8% | viability, T/C [34] 85.5% | viability, T/C [21] 71.7% | viability, T/C [22] 65.4% | viability, T/C [23] 60.2% | viability, T/C [24] 66% | viability, T/C [35] 70.8% | viability, T/C [36] 66.2%
